Data taken from patent publication US20030078274A1, “Method of reducing neuronal injury or apoptosis” (priority 1999, published 2003).

What was measured:
[1] = system: neurons (NMDA-induced apoptosis); assay: NMDA-induced neuronal apoptosis in cerebrocortical cultures; assay type: cell-based, Sprague-Dawley rats
Experimental: (§1) The model used in the assays described below, i.e., rat cerebrocortical cultures, was prepared from embryos of Sprague-Dawley rats at day 15 to 17 of gestation. See Lei et al., Neuron 8:1087-1099 (1992) and Lipton et al., Nature 364:626-632 (1993). Cultures were used for experiments after 17 to 24 days in culture. These cultures contain neurons, astrocytes, and macrophages/microglia, as determined with specific immunolabeling. Prior to some experiments, macrophages/microglia or neurons were depleted from the cultures by exposure to 7.5 mM L-leucine methyl ester or 2 mM N-methyl-D-aspartate (NMDA), respectively. See Lipton, NeuroReport 3:913-915 (1992). Absence of macrophages/microglia or neurons in these cultures was confirmed immunocytochemically, using antibodies to ED-1 and microtubule-associated protein-2 (MAP-2), respectively. In some experiments, the Griess reaction was used to measure nitrite levels in the culture medium as an index of nitric oxide (NO) release. See Chao et al., Glia 16:276-284 (1996).
(§2) Neuronal apoptosis in the above-described assays was assessed using a variety of techniques, e.g., staining of permeabilized cells with propidium iodide to determine apoptotic morphology, and a neuron-specific antibody (against NeuN or MAP-2) to identify cell type. […]

[2] = system: neurons in rat cerebrocortical cultures (gp120-induced apoptosis); assay: gp120-induced neuronal apoptosis in rat cerebrocortical cultures; assay type: cell-based, Sprague-Dawley rats; settings: for effect on neuronal apoptosis induced by gp120: gp120 200 pM, 24 h
Experimental: as §1, with “These cultures contain neurons, astrocytes, and macrophages/microglia, as determined with specific immunolabeling.” left out, “Absence of macrophages/microglia or neurons in these cultures was confirmed immunocytochemically, using antibodies to ED-1 and microtubule-associated protein-2 (MAP-2), respectively.” left out
Cultures were transferred into Earle's Balanced Salt Solution (EBSS) and incubated for 24 hours with gp120, chemokines, Tuftsin fragment 1-3, i.e., Thr-Lys-Pro (TKP), p38 MAPK inhibitor SB 203580 (i.e., 4-(4-fluorophenyl)-2-(4-methylsulfinylphenyl)-5-(4-pyridyl)imidazole, Calbiochem, San Diego, Calif.), or combinations thereof. Chemokines or TKP were applied for 5 minutes and SB 203580 for 15 minutes prior to gp120 exposure.
TKP was obtained from Sigma (St. Louis, Mo.). Recombinant human MIP-1β, SDF-1α, SDF-1β, and recombinant rat RANTES were purchased from R&D systems ([…].) and Endogen (Woburn, Mass.), respectively. HIV-1 envelope glycoprotein gp120 from the strain SF2 was obtained from the NIH AIDS Research and Reference Reagent Program, Division of AIDS, NIAID, NIH. See Scandella et al., AIDS Res. Hum. Retroviruses 9:1233-1244 (1993). Additional gp120s from HIV-1 strains IIIB and RF2 were obtained from Genetech and the National Cancer Institute, respectively. TNFα, IFNγ, and IL-1β were from Genzyme (Cambridge, Mass.), Gibco BRL (Grand Island, N.Y.) and Endogen (Woburn, Mass.), respectively.
Neuronal apoptosis in the above-described assays was assessed using a variety of techniques, e.g., staining of permeabilized cells with propidium iodide to determine apoptotic morphology, and a neuron-specific antibody (against NeuN or MAP-2) to identify cell type. In brief, cells were fixed for 5 minutes with ice-cold acetone at −20° C. and, after three washes in PBS, for 4 minutes with 2% (w/v) paraformaldehyde solution in PBS at room temperature (RT). Acetone-paraformaldehyde-fixed cells were permeabilized using 0.2% Tween 20 in PBS (PBST), and non-specific binding sites were blocked by incubation for 1 hour with a 10% solution of heat-inactivated goat serum in PBST. To specifically stain neurons, cells were then incubated for 4 hours at RT or overnight at 4° C. with 1:500 dilutions of anti-MAP-2 (Sigma) or anti-NeuN monoclonal antibody (mAb; Chemicon, Temecula, Calif.). Their respective non-specific isotype antibodies served as controls. After three washes, the cells were incubated in a secondary polyclonal antibody (pAb) conjugated either to fluorescein isothiocyanate (FITC) or to horseradish peroxidase (HRP). In the case of HRP-coupled pAb, diaminobenzidine (DAB) served as the color substrate developed by incubation in a mixture of 1 mg/ml DAB and 0.8% H2O2 at a ratio of 3:1. Cellular nuclei were subsequently stained with […] propidium iodide for 5 minutes in the dark, and then coverslips were mounted on glass slides. Experiments were replicated at least 3 times with triplicate values in each experiment. Statistical significance was judged by an analysis of variance (ANOVA) followed by a Scheffé or Bonferroni/Dunn post hoc test.

[3] = system: cytokine-activated astrocytes; assay: NO release (nitrite, Griess reaction) by cytokine-activated astrocytes; assay type: cell-based, Sprague-Dawley rats; settings: in the absence of macrophages/microglia
Experimental: as §1

[4] = system: neurons in rat cerebrocortical cultures (SDF-1-induced apoptosis); assay: SDF-1-induced neuronal apoptosis in rat cerebrocortical cultures; assay type: cell-based, Sprague-Dawley rats; settings: TKP
Experimental: as §1, with “(1996). […]” for “(1996).”
as §2

[5] = system: retinal ganglion cells (RGCs); assay: Optic nerve axotomy model of glaucoma: RGC survival in vivo; parameters: species or system Long-Evans rats; settings: MK801 intravitreal; 14 days post axotomy
Text: As a model for studying treatment of glaucoma, damaged (axotomized) retinal ganglion cells were employed. Specifically, transection of the optic nerve close to the cell body causes apoptotic death of retinal ganglion cells (RGCs), similar to that found in glaucoma. […] Three days later, the left optic nerve was intraorbitally transected 1 mm from the globe. One day after axotomy, no remarkable change in the fluorescence pattern of RGCs was seen compared to that of controls. RGC density, as assessed by the number of fluorescently-labeled cells, began to decline between 4 and 7 days post axotomy. By 14 days, a substantial number of fluorescently-labeled RGCs appeared to have been lost. Morphologically, in whole-mounted retinas stained with cresyl violet, ganglion cell layer (GCL) of unlesioned control retinas manifest no apoptotic profiles or pyknotic nuclei. In contrast, by 10 days after axotomy, multiple degenerating cell bodies with pyknotic nuclei were apparent in the GCL, and the cell density in this layer appeared to be greatly diminished. When hydroxystilbamidine fluorescence in the GCL was quantified, in unlesioned control retinas the mean RGC density was 2533±104 cells/mm^2 (mean±SD). Within 14 days of axotomy, the mean RGC density decreased to 348±107 (14% of control).
(§3) One day after axotomy, activated (di-phosphorylated) p38 was visualized by immunocytochemistry in the RGC layer, but not in control retinas. By Western blotting, phosphorylated p38 was first detected 12 hours after axotomy and reached a maximum at 24 hours before decreasing. SB 203580 was administered intravitreally at the time of axotomy, and repeated at 5 days and 10 days.
Retrograde labeling of retinal ganglion cells. Adult male Long-Evans rats weighing 200 to 250 g were obtained from a local breeder and, for all experimental manipulations, were anesthetized with 1-2% isoflurane and 70% N2O. RGCs were retrogradely labeled with hydroxystilbamidine (Molecular Probes, Eugene, Oreg., also known as Fluoro-Gold™) to allow accurate counting of cell bodies as described in Vorwerk et al., Invest. Ophthalmol. Vis. Sci. 40:813-816. Rats were anesthetized and placed in a small stereotactic instrument. The skull was exposed and kept dry. The bregma was identified and marked, and a small window was drilled above the right hemisphere, leaving the dura intact.
Axotomy. Optic nerve axotomy was performed on the left eye 4 days after retrograde labeling. After incision of the dorsolateral conjunctiva, the lateral extraocular muscle was transected, and the optic nerve was exposed under a stereoscopic microscope. The optic nerve was then transected at a distance of about 1 mm from the eye bulb. During the operation, care was taken to avoid damage to the retinal blood supply.
(§4) Drug application. Intravitreal injections were carried out using a 33-gauge needle attached to a 25 μl syringe following pupil dilation with 1% atropine sulfate. The tip of the needle was inserted through the dorsal limbus of the eye under stereomicroscopic visualization. Injections were completed over a period of 1 min. Intravitreal injections of SB 203580 (Calbiochem, San Diego, Calif.), MK801 (Research Biochemicals International, Natick, Mass.) or control solutions (as an equal volume of saline diluent) were performed on operated eyes immediately after axotomy, and repeated 5 and 10 days post axotomy.
Quantification of axotomized RGC survival and histology. […]

p38 = p38 phosphorylation/activation in retina after axotomy; assay type: in vivo, Long-Evans rats; settings: MK801 intravitreal after axotomy
Experimental: as §3, §4
Immunohistochemistry. After enucleation, the eyes were immersed in fixative composed of 4% paraformaldehyde in phosphate-buffered saline (PBS; pH 7.4) at 4° C. Ten minutes later, the eyes were hemisected in the fixative, and the anterior segment, lens and vitreous body were discarded. The remaining posterior eyecup was kept in fresh fixative solution overnight at 4° C. The eyecup was then embedded in paraffin. […]

[6] = system: neurons in rat cerebrocortical cultures; assay: Neuronal apoptosis assay, chemokine alone versus control; assay type: cell-based, Sprague-Dawley rats; settings: α-chemokine 20-50 nM, 24 h
Experimental: as §1, with “(1996). […]” for “(1996).”
as §2

[7] = β-chemokine at 20 nM applied 5 min before gp120

Thr-Lys-Pro [TKP]
effect on NMDA-induced neuronal apoptosis [1]: did not interfere | effect on gp120-induced neuronal apoptosis ([2]; TKP 50 μM, applied 5 min before gp120): protected neurons from gp120-induced apoptosis | effect on NO release by cytokine-activated astrocytes [3]: did not inhibit NO release | effect on SDF-1β-induced neuronal apoptosis [4]: not abrogated

C[C@]12N[C@H](Cc3ccccc31)c1ccccc12 [MK801]
number of surviving RGCs [5]: increased the number of surviving RGCs | p38 phosphorylation/activation (p38): inhibited p38 phosphorylation/activation in a dose-dependent manner

RANTES
effect on neuronal apoptosis induced by gp120 [2, 7]: abrogated

SDF-1α
increase in neuronal apoptosis compared to control [6]: approximately 2 fold | effect on neuronal apoptosis induced by gp120 ([2]; α-chemokine at 20-50 nM): did not reduce neuronal damage or apoptosis

COc1cccc(-c2cc(=O)c3ccccc3o2)c1N [PD 98059, 2′-amino-3′-methoxyflavone]
effect on gp120SF2-induced neuronal apoptosis ([2]; PD 98059 2 μM): only SB 203580 substantially attenuated

S=C(S)N1CCCC1 [PDTC, pyrrolidine dithiocarbamate]
effect on gp120SF2-induced neuronal apoptosis ([2]; PDTC 5 μM): only SB 203580 substantially attenuated

B1: MIP-1β: recombinant human MIP-1β, β-chemokine (protein, UniProt P13236 24-92, looked up)
C-C motif chemokine 4: APMGSDPPTACCFSYTARKLPRNFVVDYYETSSLCSQPAVVFQTKRSKQVCADPSESWVQEYVYDLELN
effect on neuronal apoptosis induced by gp120 [2, 7]: abrogated
